Experimental data from ChEMBL document CHEMBL1141313 (Bioorg Med Chem, 2007).

Key:
[1] = biological target: Protease (Human immunodeficiency virus 1) (UniProt Q9YQ12); test: (§1) Inhibition of HIV1 protease
[2] = biological target: T1, Protease (Human immunodeficiency virus 1, UniProt Q9YQ12); test: as §1
Target sequence in this assay (Q9YQ12 whole entry): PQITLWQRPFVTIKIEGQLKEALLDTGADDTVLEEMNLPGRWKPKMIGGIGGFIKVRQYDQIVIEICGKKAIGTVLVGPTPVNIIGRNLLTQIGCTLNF

[3] = tested on: Human immunodeficiency virus 1; test: Antiviral activity against HIV1 in CEM cells; type: functional; details: Human immunodeficiency virus 1, CCRF-CEM; for IC50: read-out: ID50 (the source's name)
[4] = biological target: T1, Protease; test: Inhibition of HIV1 protease mutant
Target sequence in this assay (Q9YQ12 1-99): as the sequence (Q9YQ12 whole entry) above

[5] = tested on: Human immunodeficiency virus 1; test: Antiviral activity against protease inhibitor-resistant HIV1 isolate; type: functional, organism-based
[6] = tested on: Human immunodeficiency virus 1; test: Antiviral activity against HIV1 in MT4 cells; type: functional

Sequence of Protease (Human immunodeficiency virus 1) (Q9YQ12 as listed by the source): as the sequence (Q9YQ12 whole entry) above

In the case of `COC(=O)N[C@H](C(=O)NCCCC[C@@H](CO)N(CC(C)C)S(=O)(=O)c1ccc(N)cc1)C(c1ccccc1)c1ccccc1`, the Activity [1] is reported as < 20 nM.

`CC(C)CN(C[C@@H](O)[C@H](Cc1ccccc1)NC(=O)O[C@@H]1C[C@@H]2CCO[C@@H]2C1)S(=O)(=O)c1ccc(CO)cc1` gave an IC50 [2] of 1.8 nM and a Ki [2] of 0.0045 nM.

In the case of `COc1ccc(S(=O)(=O)N(CC(C)C)C[C@@H](O)[C@H](Cc2ccccc2)NC(=O)O[C@H]2CO[C@H]3OCC[C@H]32)cc1`, the IC50 [3] is reported as 1.2 nM.

`CC(C)(C)NC(=O)[C@@H]1C[C@@H]2CCCC[C@@H]2CN1C[C@@H](O)[C@H](Cc1ccccc1)NC(=O)O[C@H]1CO[C@H]2OCC[C@H]21` showed an IC50 [2] of 1.8 nM and an IC95 ([3]; read-out: CIC95) of 46 nM.

Compound `C=CCNC(=O)[C@H]1NC(C(=O)[C@@H](O)[C@H](Cc2ccccc2)NC(=O)c2cccc(O)c2)SC1(C)C` (stereo partly drawn) has a Ki [4] of 0.1 nM, a Ki [2] of 0.1 nM and an EC50 [5] of 34 nM.

`CC(C)CN(C[C@@H](O)[C@H](Cc1ccccc1)NC(=O)O[C@H]1CO[C@H]2OCC[C@H]21)S(=O)(=O)c1ccc(N)cc1` was tested, and the ID90 [6] was 10 nM, the TD50 [6] was >100 µM and the IC50 [3] was 4.7 nM.

In the case of `COC(=O)N[C@H](C(=O)NCCCC[C@@H](COP(=O)(O)O)N(CC(C)C)S(=O)(=O)c1ccc(N)cc1)C(c1ccccc1)c1ccccc1`, the Activity [1] is reported as < 20 nM.
